≈ marks a conversion by molar mass, not a printed value.
Legend:
Candida albicans [1] = test: Lowest concentration required to inhibit 90-100% of the visible growth of Candida albicans; type: functional
Aspergillus fumigatus = test: Lowest concentration required to inhibit 90-100% of the visible growth of Aspergillus fumigatus; type: functional
Cryptococcus neoformans [2] = test: Tested in vitro for lowest concentration required to inhibit 90-100% of the visible growth of Cryptococcus neoformans
Candida albicans [3] = test: Lowest concentration required to inhibit 90-100% of the visible growth of Candida albicans; Range is 0.312-1.25; type: functional
Candida albicans [4] = test: Lowest concentration required to inhibit 90-100% of the visible growth of Candida albicans; Range is […]; type: functional
Cryptococcus neoformans [5] = test: Tested in vitro for lowest concentration required to inhibit 90-100% of the visible growth of Cryptococcus neoformans; Range is 0.02-0.078
Candida albicans [6] = test: Lowest concentration required to inhibit 90-100% of the visible growth of Candida albicans; Range is 0.625-1.25; type: functional

Compound	MIC (Candida albicans [1])	MIC (Aspergillus fumigatus)	MIC (Cryptococcus neoformans [2])	MIC (Cryptococcus neoformans [5])	MIC (Candida albicans [3])	MIC (Candida albicans [4])	MIC (Candida albicans [6])
C/C=C1\NC(=O)[C@H]([C@H](C)O)NC(=O)[C@H](CCN)NC(=O)[C@H](CCCCN)NC(=O)[C@H](CC(=O)O)NC(=O)[C@@H](CCN)NC(=O)[C@@H](NC(=O)C[C@H](O)CCCCCCCCCCC)COC(=O)[C@H]([C@H](O)CCl)NC(=O)[C@H]([C@H](O)C(=O)O)NC1=O [PSEUDOMYCIN B]		> 20 µg/mL			1.25 µg/mL (≈ 1.03 µM)		
C/C=C1\NC(=O)[C@H]([C@H](C)O)NC(=O)[C@H](CCN)NC(=O)[C@H](CCCCN)NC(=O)[C@H](CC(=O)O)NC(=O)[C@@H](CCN)NC(=O)[C@@H](NC(=O)C[C@@H](O)CCCCCCCCCCC)COC(=O)[C@H]([C@H](O)CCl)NC(=O)[C@H]([C@H](O)C(=O)O)NC1=O		> 20 µg/mL				5 µg/mL (≈ 4.14 µM)	
C/C=C1\NC(=O)[C@H]([C@@H](C)O)NC(=O)[C@H](CCN)NC(=O)[C@H](CCCCN)NC(=O)[C@H](CC(=O)O)NC(=O)[C@@H](CCN)NC(=O)[C@@H](NC(=O)CC(O)CCCCCCCCCCC)COC(=O)[C@H]([C@H](O)CCl)NC(=O)[C@H]([C@H](O)C(=O)O)NC1=O (mixture of isomers)		> 20 µg/mL					1.25 µg/mL
C/C=C1\NC(=O)[C@H]([C@H](C)O)NC(=O)[C@H](CCN)NC(=O)[C@H](CCCCN)NC(=O)[C@H](CC(=O)O)NC(=O)[C@@H](CCN)NC(=O)[C@@H](NC(=O)C[C@H](O)CCCCCCCCCCCCCCCCC)COC(=O)[C@H]([C@H](O)CCl)NC(=O)[C@H]([C@H](O)C(=O)O)NC1=O	5 µg/mL (≈ 3.87 µM)	5 µg/mL (≈ 3.87 µM)	1.25 µg/mL (≈ 0.968 µM)				

The next lines start with results.

MIC (Candida albicans [1])	MIC (Aspergillus fumigatus)	MIC (Cryptococcus neoformans [2])	MIC (Cryptococcus neoformans [5])	Compound	MIC (Candida albicans [3])	MIC (Candida albicans [4])	MIC (Candida albicans [6])
2.5 µg/mL (≈ 1.98 µM)	10 µg/mL (≈ 7.91 µM)	0.312 µg/mL (≈ 0.247 µM)		C/C=C1\NC(=O)[C@H]([C@H](C)O)NC(=O)[C@H](CCN)NC(=O)[C@H](CCCCN)NC(=O)[C@H](CC(=O)O)NC(=O)[C@@H](CCN)NC(=O)[C@@H](NC(=O)C[C@@H](O)CCCCCCCCCCCCCCC)COC(=O)[C@H]([C@H](O)CCl)NC(=O)[C@H]([C@H](O)C(=O)O)NC1=O			
0.625 µg/mL (≈ 0.495 µM)	2.5 µg/mL (≈ 1.98 µM)	0.01 µg/mL (≈ 0.00791 µM)		C/C=C1\NC(=O)[C@H]([C@H](C)O)NC(=O)[C@H](CCN)NC(=O)[C@H](CCCCN)NC(=O)[C@H](CC(=O)O)NC(=O)[C@@H](CCN)NC(=O)[C@@H](NC(=O)C[C@H](O)CCCCCCCCCCCCCCC)COC(=O)[C@H]([C@H](O)CCl)NC(=O)[C@H]([C@H](O)C(=O)O)NC1=O			
1.25 µg/mL	5 µg/mL		0.02 µg/mL	C/C=C1\NC(=O)[C@H]([C@@H](C)O)NC(=O)[C@H](CCN)NC(=O)[C@H](CCCCN)NC(=O)[C@H](CC(=O)O)NC(=O)[C@@H](CCN)NC(=O)[C@@H](NC(=O)CC(O)CCCCCCCCCCCCCCC)COC(=O)[C@H]([C@H](O)CCl)NC(=O)[C@H]([C@H](O)C(=O)O)NC1=O (mixture of isomers)			
10 µg/mL	2.5 µg/mL	0.625 µg/mL		C/C=C1\NC(=O)[C@H]([C@@H](C)O)NC(=O)[C@H](CCN)NC(=O)[C@H](CCCCN)NC(=O)[C@H](CC(=O)O)NC(=O)[C@@H](CCN)NC(=O)[C@@H](NC(=O)CC(O)CCCCCCCCCCCCCCCCC)COC(=O)[C@H]([C@H](O)CCl)NC(=O)[C@H]([C@H](O)C(=O)O)NC1=O (mixture of isomers)			
5 µg/mL (≈ 3.87 µM)	> 20 µg/mL	5 µg/mL (≈ 3.87 µM)		C/C=C1\NC(=O)[C@H]([C@H](C)O)NC(=O)[C@H](CCN)NC(=O)[C@H](CCCCN)NC(=O)[C@H](CC(=O)O)NC(=O)[C@@H](CCN)NC(=O)[C@@H](NC(=O)C[C@@H](O)CCCCCCCCCCCCCCCCC)COC(=O)[C@H]([C@H](O)CCl)NC(=O)[C@H]([C@H](O)C(=O)O)NC1=O			

Reference: ChEMBL document CHEMBL1133314, “Syntheses and biological evaluation of novel pseudomycin side-chain analogues. Part 2” (2000)
